Laboratory results from PMC9913752, “Proof-of-Concept Study of an Alpha-Fetoprotein-Derived Peptide for the Management of Canine Mammary Cancer” (Animals : an Open Access Journal from MDPI, 2023).
Like-named read-outs stand apart in the source and are kept apart here. Where a SMILES comes first, the peptide text is derived from it. [ ]: non-standard residue; d: D form. Hyp = O=C(O)[C@@H]1C[C@@H](O)CN1

Key:
[1] = Pharmacokinetics in mice; assay type: in vivo; conditions: mouse; for Cmax / AUC: plasma LC/MS/MS; for half-life: in vivo
Protocol: (§1) AFPep (4 mg/kg) was administered by parenteral (i.v., s.c.) as well as oral routes to normal adult mice, dogs, and monkeys. Blood samples were obtained from anesthetized mice via the retroorbital plexus. Blood samples from dogs and monkeys were obtained through an indwelling catheter in the cephalic vein by the veterinarian staff at Albany Medical College. Dogs were awake and alert during sampling; monkeys were under anesthesia, as previously described. For the oral route, gavage was used in mice and monkeys; enteric capsules ([…]) containing AFPep were used and were readily swallowed by dogs. AFPep blood levels were measured using lliquid chromatography and mass spectrometry, as previously described.

[2] = test system: ER-positive primary canine mammary cancer cells; conditions: cited from earlier work
Protocol: It is important to note that during the development of AFPep, head-to-tail cyclization was carried out to increase stability as well as oral bioavailability. Other investigators have shown that the cyclization of peptides increases bioavailability.

[3] = Pharmacokinetics in dogs; assay type: in vivo; conditions: dog; for AUC / Cmax: plasma LC/MS/MS
Protocol: as §1

[4] = in vivo; design: species or system Macaca mulatta; conditions: monkey
Protocol: as §1

[5] = Clinical parameters in unanesthetized dogs; assay type: in vivo, dog
[6] = test system: Estrogen-induced mammary tumors; conditions: cited from earlier work
Description: (§2) Table 1 The therapeutic and preventive efficacy of AFPep * in rodent models of mammary cancer. | column: Estrogen-Induced Mammary Tumors in ACI Rats ^3 || As models for preventive interventions, two widely used mammary cancer induction models in rats were studied to assess the cancer prevention capabilities of AFPep.

[7] = test system: MCF-7 human breast cancer xenografts; conditions: cited from earlier work
Protocol: Table 1 The therapeutic and preventive efficacy of AFPep * in rodent models of mammary cancer. | column: MCF-7 Human Breast Cancer Growth in SCID Mice ^1 || The efficacy of AFPep in various models of mammary cancer has been shown in multiple reports. […] A 4 mg/kg dose was assessed parenterally, and the dosage was escalated to 100 mg/kg, administered orally.

[8] = test system: MNU-induced mammary tumors; conditions: cited from earlier work
Description: as §2, with “MNU-Induced” for “Estrogen-Induced”, “Sprague Dawley” for “ACI”, “^2” for “^3”

[9] = 8-day repeat-dose study, AFPep blood levels in tumor-bearing dogs; assay type: in vivo, dog; conditions: for level at 0.5 h: female, dog, blood, sc, 10 mg
Description: Previous studies utilizing repeat dosing in mice and rats established safe starting doses for studies using dogs. Female dogs with one or more spontaneously occurring mammary gland tumors greater than approximately 2 cm in maximum diameter, presenting to the Cancer Institute at the Schwarzman Animal Medical Center in New York City, were screened for inclusion in the study. […] All dogs underwent complete clinical staging, consisting of a complete blood count with cell differential, clinical chemistry, and urinalysis. Dogs were administered AFPep 10 mg s.c. once daily for 8 consecutive days. Tumors were biopsied prior to the administration of AFPep and were surgically removed on day 8 after the last injection of AFPep. Blood levels of AFPep were measured before and 30 minutes following its administration on the first day and eighth day of treatment with AFPep. Histopathology was obtained on all mammary gland tumors. Tolerability was assessed using the Veterinary Cooperative Oncology Group Common Terminology Criteria for Adverse Events. Blood chemistry and hematology analyses were performed at IDEXX Laboratories Inc. (Westbrook, ME, USA), using the Sysmex XT and Beckman AU 5800 systems. This study was approved by the Schwarzman Animal Medical Center IACUC and informed consent was obtained in writing from all owners.

[10] = p.o. enteric capsules (DRcaps), 4 mg/kg per footnote (100 mg/kg orally)
[11] = unanesthetized dogs, 30 min Post AFPep, mean ± SE from 6 dogs

Cmax ([1]; iv, 4 mg/kg (100 µg/mouse), non-linear regression, first-order PK model): 12000 ng/mL
AUC ([1]; iv, 4 mg/kg): 4200 ng·h/mL
half-life ([1]; iv, 4 mg/kg): 11 min
half-life ([1]; po): 6.3 min
half-life ([1]; sc, 4 mg/kg): 11 min
AUC ([1]; po, p.o. gavage, 4 mg/kg per footnote (100 mg/kg orally)): 80 ng·h/mL
Cmax ([1]; po, p.o. gavage, 4 mg/kg per footnote (escalated to 100 mg/kg orally)): 140 ng/mL
AUC ([1]; sc, 4 mg/kg): 3450 ng·h/mL
Cmax ([1]; sc, 4 mg/kg): 6400 ng/mL
T1/2 ([3]; in vivo): 39 min
half-life ([3]; in vivo, iv, 4 mg/kg): 18 min
half-life ([3]; in vivo, sc, 4 mg/kg): 65 min
AUC [3, 10]: 14 min(µg/mL)
Cmax [3, 10]: 100 ng/mL
Cmax ([3]; iv, i.v., 4 mg/kg, non-linear regression, first-order PK model, read-out: Cmax): 35000 ng/mL
AUC ([3]; iv, i.v., 4 mg/kg, read-out: AUC (converted)): 15000 ng·h/mL
AUC ([3]; sc, s.c., 4 mg/kg, read-out: AUC (converted)): 13500 ng·h/mL
Cmax ([3]; sc, s.c., 4 mg/kg, read-out: Cmax): 5800 ng/mL
AUC ([4]; iv, 4 mg/kg): 26200 ng·h/mL
Cmax ([4]; iv, 4 mg/kg): 13000 ng/mL
half-life ([4]; iv, 4 mg/kg): 107 min
half-life ([4]; po): 810 min
AUC ([4]; sc, 4 mg/kg): 23400 ng·h/mL
Cmax ([4]; sc, 4 mg/kg): 8200 ng/mL
half-life ([4]; sc, 4 mg/kg): 27 min
reflux or vomiting after administration ([5]; dogs): no evidence of reflux or vomiting
Capillary refill time ([5]; unanesthetized dogs, 30 min Post AFPep, 6 dogs): <2 s
Body temperature ([5]; unanesthetized dogs, 30 min Post AFPep, mean from 6 dogs): 39.0 °C
Respiration Rate [5, 11]: 28 ± 4
AFPep blood level, Day 8 Pre-Treatment ([9]; Chihuahua, 7.53 kg, 10 mg s.c. once daily for 8 days, single animal): 0 ng/mL
AFPep blood level, Day 8 Pre-Treatment ([9]; Pitbull, 30.2 kg, 10 mg s.c. once daily for 8 days, single animal): 0 ng/mL
AFPep blood level, Day 8 Pre-Treatment ([9]; Pomeranian, 7.98 kg, 10 mg s.c. once daily for 8 days, single animal): 0 ng/mL
AFPep blood level, Day 8 Pre-Treatment ([9]; Shih tzu, 11.02 kg, 10 mg s.c. once daily for 8 days, single animal): 0 ng/mL
AFPep blood level, Day 8 Pre-Treatment ([9]; Yorkshire terrier, 5.86 kg, 10 mg s.c. once daily for 8 days, single animal): 0 ng/mL
level at 0.5 h ([9]; Pomeranian, Pomeranian, 7.98 kg, 30 min after 10 mg s.c., single animal, read-out: AFPep blood level, Day 1 Post-Treatment): 2400 ng/mL
level at 0.5 h ([9]; Pomeranian, Pomeranian, 7.98 kg, 30 min after dose, 10 mg s.c. once daily for 8 days, single animal, read-out: AFPep blood level, Day 8 Post-Treatment): 2100 ng/mL
level at 0.5 h ([9]; Poodle mix, Poodle mix, 5.80 kg, 30 min after 10 mg s.c., single animal, read-out: AFPep blood level, Day 1 Post-Treatment): 4400 ng/mL
level at 0.5 h ([9]; Poodle mix, Poodle mix, 5.80 kg, 30 min after dose, 10 mg s.c. once daily for 8 days, single animal, read-out: AFPep blood level, Day 8 Post-Treatment): 5000 ng/mL
level at 0.5 h ([9]; Yorkshire terrier, Yorkshire terrier, 5.86 kg, 30 min after 10 mg s.c., single animal, read-out: AFPep blood level, Day 1 Post-Treatment): 2200 ng/mL
level at 0.5 h ([9]; Yorkshire terrier, Yorkshire terrier, 5.86 kg, 30 min after dose, 10 mg s.c. once daily for 8 days, single animal, read-out: AFPep blood level, Day 8 Post-Treatment): 1900 ng/mL
level at 0.5 h ([9]; diverse breeds, Mean ± S.D. of 6 tumor-bearing dogs, 30 min after 10 mg s.c., first day, read-out: AFPep blood level, Day 1 Post-Treatment): 3600 ± 1200 ng/mL
level at 0.5 h ([9]; diverse breeds, Mean ± S.D. of 6 tumor-bearing dogs, 30 min after the day-8 dose, 10 mg s.c. once daily for 8 days, read-out: AFPep blood level, Day 8 Post-Treatment): 2500 ± 600 ng/mL
level at 0.5 h ([9]; summary of Table 6, 30 minutes post-AFPep, 10 mg s.c. once a day for 8 days, 6 tumor-bearing dogs, read-out: AFPep blood levels): 2000 to 3000 ng/mL
Structure (SMILES): CC(C)[C@@H]1NC(=O)[C@@H]2C[C@@H](O)CN2C(=O)[C@H]([C@@H](C)O)NC(=O)[C@H](CCCCN)NC(=O)[C@H](CCC(=O)O)NC(=O)[C@H](CC(N)=O)NC(=O)CNC(=O)[C@@H]2C[C@@H](O)CN2C(=O)[C@H](CC(N)=O)NC1=O [AFPep] (cyclo(EKT[Hyp]VN[Hyp]GN))
activity against ER-positive primary canine mammary cancer cells growing in culture [2]: effective
other clinical indicators (mobility, playfulness, appetite, stool consistency, heart rate, respiration rate, capillary refill time, body temperature) ([5]; dogs): remained normal
Heart Rate [5, 11]: 112 ± 5
Estrogen-Induced Mammary Tumors in ACI Rats, % of Rats with Tumors ([6]; estradiol Silastic implant, AFPep s.c. once daily, p < 0.05): 48 * %
latency period of cancer appearance ([6]; hormone-induced model): prolonged
MCF-7 Human Breast Cancer Growth in SCID Mice (tumor volume) ([7]; AFPep 100 μg/mouse (4 mg/kg) oral gavage once daily for 14 days, established xenografts, p < 0.05 vs saline): 30 mm³
blood levels of AFPep needed for anti-breast cancer activity [7]: 10^−7 M
minimum blood level (Cmax) needed for stoppage of xenograft growth ([7]; dose-response studies, human breast cancer xenografts in immune-deficient mice): 0.1 µg/mL
minimum AUC needed for stoppage of xenograft growth ([7]; dose-response studies, xenografts in mice): 6.5 µg·min/mL
tumor outgrowth when dosing begun immediately following tumor implantation ([7]; once daily, 30-day observation period): completely prevented
growth of established MCF-7 xenografts ([7]; once-daily oral 4 mg/kg over a 14-day period, immunodeficient mice): almost completely stopped in their growth
MNU-Induced Mammary Tumors in Sprague Dawley Rats, % of Rats with Tumors ([8]; MNU 50 mg/kg, AFPep 4 mg/kg s.c. once daily for 23 days from 10 days after MNU, p < 0.05): 40 * %
latency period of cancer appearance ([8]; chemically induced model): prolonged
